Values of other authors in patent US20140010884A1, “DERMATOLOGICAL COMPOSITIONS COMPRISING RETINOIDS, DISPERSED BENZOYL PEROXIDE AND CARRAGEENANS” (GALDERMA RESEARCH & DEVELOPMENT, priority 2008, published 2014).
Read-outs that look alike come from different tables or passages of the source.

What was measured:
[1] = for decomposition time: 40° C.
[2] = in PEG 400 and ethanol

COc1ccc(-c2ccc3cc(C(=O)O)ccc3c2)cc1C12CC3CC(CC(C3)C1)C2 [adapalene, 6-[3-(1-adamantyl)-4-methoxyphenyl]-2-naphthoic acid]
decomposition of retinoid in presence of benzoyl peroxide (during 24 hours): no decomposition

O=C(OOC(=O)c1ccccc1)c1ccccc1 [benzoyl peroxide]
decomposition time ([1]; in PEG 400 (0.5 mg/g)): 1.4 days | decomposition time ([1]; in ethanol): 29 days | decomposition time ([1]; in propylene glycol): 53 days | decomposition in suspension (dispersed form) ([1]; in water and propylene glycol, after storing for 90 days): not decomposed | solubility [2]: particularly soluble

CC1=C(/C=C/C(C)=C/C=C/C(C)=C/C(=O)O)C(C)(C)CCC1 [tretinoin]
retinoid decomposing in presence of benzoyl peroxide (in 2 hours): 50% | retinoid decomposing in presence of benzoyl peroxide (in 24 hours): 95%
